According to US5705491A, “Adenosine deaminase inhibitor” (Nippon Zoki Pharmaceutical Co., Ltd., priority 1992, dated 1998):

Legend:
[1] = tested on: rats administered with puromycin aminonucleoside (nephritis model); assay: Therapeutic action to nephritis (puromycin aminonucleoside rats); assay type: in vivo, male rat (SD strain); settings: 50 mg/kg oral, five consecutive days
Method: 2. Therapeutic Action to Nephritis.
When puromycin aminonucleoside is administered to rats, symptoms similar to protein-rich urine, hypoproteinemia, hyperlipemia, nephrotic syndrome, etc, result and, therefore, rats which are administered with puromycin aminonucleoside have been used as pathological model animals for nephritis. The chemical name for puromycin aminonucleoside is 3'-amino-3'-deoxy-N,N-dimethyladenosine. A method by Endo, et al. [Sogo Rinsho, vol. 38, no. 5, page 821 (1989)] was somewhat modified and used as a test method here. Thus, a solution of puromycin aminonucleoside was dissolved in a physiological saline liquid and administered just once to a tail vein of a male rat (SD strain) of about 200 g body weight at a dose of 100 mg/kg (the initial of zero-th day).
The compound to be tested was dissolved in a physiological saline liquid and was given orally for five consecutive days from the zero-th day at a dose of 50 mg/kg each. After 24 hours, the accumulated urine was collected and the amount of urine and the amount of protein in the urine was measured. Blood was collected on the tenth day and the total protein in serum, creatinine in serum and urea nitrogen were measured.
Examples of the results are given in Tables 2 and where the control is those animals injected only with the puromycin aminonucleoside: […]

[2] = tested on: ischemic edema of hind paw of mice; assay: Suppressive action against ischemic edema; assay type: in vivo, ICR-strain male mice
Method: 4. Suppressive Action against Ischemic Edema
The right hind paw of ICR-strain male mice (11 weeks of age) were fastened with a rubber band to stop the blood stream for 20 minutes, and then the rubber band was removed to recover the blood stream. The tested drug was administered intravenously before the treatment. Each of the right and left hind paws were weighed and the suppressive action was measured according to the weight difference between the treated and untreated paws.

[3] = tested on: Human peripheral polymorphonuclear leukocyte (PML); assay: Inhibitory action against activated oxygen (superoxide) generation; assay type: cell-based; settings: FMLP 10^-7 M; for inhibition at 100 µM: 1 × 10^-4 M; for inhibition at 10 µM: 1 × 10^-5 M; for inhibition at 1 µM: 1 × 10^-6 M
Method: 3. Inhibitory Action against Activated Oxygen Generation
Human peripheral polymorphonuclear leukocyte (PML, 2×10^6 cells) prepared in a conventional method, bovine heart cytochrome C type-III (75 nmol), cytocharasin (5 μg) and tested drug were mixed with HEPES-buffered saline solution (final 1 ml) and incubated for 5 minutes at 37° C. N-Formyl-methionyl-leucyl-phenylalanine (FMLP) was added (final 10^-7 M) and incubated for 5 minutes. Immediately after the incubation, the reaction mixture was centrifuged at 4° C., and then the absorbance at 550 nm of the supernatant was measured with a spectrophotometer.
An excess amount of bovine liver superoxide dismutase (SOD) was added to the reaction mixture and the absorbance of the supernatant was also measured in the same manner as above as a blank value.
A portion of adenosine deaminase (ADA) may be removed during the preparation of human peripheral PML. Therefore, the inhibitory action against the generation of superoxide of the tested drug was measured in the same manner as mentioned above, adding 0.02 units of bovine liver ADA with human peripheral PML.
The inhibition against superoxide generation was calculated by the following equation, and examples of the results are given in Table 4. [formula]

[4] = target: T1, adenosine deaminase of type VII (mucous membrane of intestinal tract of calf) (Bos taurus, UniProt P56658); assay: Adenosine deaminase inhibiting action; assay type: biochemical; settings: 25° C., 0.05M phosphate buffer pH 7.5, adenosine substrate, 5 minutes, Lineweaver-Burk plots
T1 construct: from tissue; host or cells: mucous membrane of intestinal tract of calf
T1 sequence (P56658 1-363): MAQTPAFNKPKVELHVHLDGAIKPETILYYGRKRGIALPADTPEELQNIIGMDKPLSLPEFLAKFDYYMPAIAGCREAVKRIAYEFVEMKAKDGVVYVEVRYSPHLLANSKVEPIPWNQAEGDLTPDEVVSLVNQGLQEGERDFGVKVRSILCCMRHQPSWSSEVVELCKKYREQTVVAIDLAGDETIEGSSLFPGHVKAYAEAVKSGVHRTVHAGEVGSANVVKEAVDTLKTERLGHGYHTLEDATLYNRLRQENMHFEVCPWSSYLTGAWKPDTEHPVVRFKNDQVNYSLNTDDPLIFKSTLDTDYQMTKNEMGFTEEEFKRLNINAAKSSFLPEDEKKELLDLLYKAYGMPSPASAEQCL
Method: 1. Adenosine Deaminase Inhibiting Action
The enzymatic reaction was conducted at 25° C. in a 0.05M phosphate buffer (pH=7.5). Thus, a reaction solution comprising 800 μl of substrate solution (adenosine), 100 μl of a solution to be tested and 100 μl of enzyme solution (adenosine deaminase of type VII; mucous membrane of intestinal tract of calf) was reacted for 5 minutes and the reaction was stopped by adding 100 μl of acetic acid. Then the amount of inosine produced was determined by means of an HPLC to measure the inhibiting activity. The test was conducted for various substrate concentrations and Ki values were measured by Lineweaver-Burk plots.

[5] = with ADA (0.02 units bovine liver)

Ki [4]: 859 nM
SMILES: CNc1nc(C)nc2c1ncn2[C@@H]1O[C@H](CO)[C@@H](O)[C@H]1OC [Compound 27, 2, N^6,2'-O-Trimethyladenosine]
Serum Creatinine ([1]; blood on tenth day): 0.71 mg/dL
Total Protein in Serum ([1]; blood on tenth day): 7.44 g/dL
Urea Nitrogen ([1]; blood on tenth day): 31.9 mg/dL
Amount of Protein in Urine ([1]; 1st day): 0 mg/day
Amount of Protein in Urine ([1]; 2nd day): 29.2 mg/day
Amount of Protein in Urine ([1]; 3rd day): 33.8 mg/day
Amount of Protein in Urine ([1]; 4th day): 122.5 mg/day
Amount of Protein in Urine ([1]; 5th day): 399.8 mg/day
Amount of Protein in Urine ([1]; 6th day): 443.7 mg/day
Amount of Protein in Urine ([1]; 7th day): 558.7 mg/day
Amount of Protein in Urine ([1]; 8th day): 595.6 mg/day
Amount of Protein in Urine ([1]; 9th day): 593.5 mg/day
Amount of Protein in Urine ([1]; 10th day): 528.6 mg/day
Paw Weight, Treated ([2]; 10 mg/kg intravenous before ischemia, treated paw): 254.4 ± 6.6 mg
Inhibition (of ischemic edema) ([2]; 10 mg/kg intravenous, from weight difference between treated and untreated paws): 67.7%
inhibition at 100 µM [3, 5]: 88%
inhibition at 10 µM [3, 5]: 77%
inhibition at 1 µM [3, 5]: 34%
inhibition at 0.1 µM ([3]; with ADA (0.02 units bovine liver), 1 × 10^-7 M): 10%
inhibition at 1000 µM ([3]; without ADA, 1 × 10^-3 M): 100%
inhibition at 100 µM ([3]; without ADA): 79%
inhibition at 10 µM ([3]; without ADA): 22%
inhibition at 1 µM ([3]; without ADA): 2%
